The values that follow are results of earlier work, collected in patent publication US20190320688A1, “COMPOSITIONS FOR PREVENTING AND RELIEVING HANGOVER & LIVER DAMAGE WHICH OCCUR DUE TO ALCOHOL CONSUMPTION” (priority 2018, published 2019).

The conditions of this data set: biological activities listed in background table.

Consider Methylcurcumin, for which the Activity result is reported as “L. amazonensis”.
